Experiments:
[1] = system: P. falciparum (strain 3D7); test: Assay of growth inhibition, [3H]hypoxanthine incorporation; assay type: cell-based; conditions: in vitro culture; [3H]hypoxanthine uptake and incorporation
Description: Assay of Growth inhibition. Thiostrepton (1525 u/mg; Calbiochem) and anisomycin (Sigma) were dissolved at 100 mM in DMSO (Pierce). P. falciparum (strain 3D7) (44) was maintained in culture with human erythrocytes (5% hematocrit) in RPMI-1640 (Life Technologies) supplemented with HEPES and sodium bicarbonate and human sera (10%) under standard conditions (18,19). The growth inhibition assay was conducted as described (20). Briefly, the parasitemia was adjusted to 0.1% parasitemia, 2.5% hematocrit and 200 μl aliquots placed in wells of a microtitre dish. Serial dilutions of drugs were made in RPMI. Thiostrepton was diluted to 10 mM in DMSO before the serial dilutions in RPMI. Aliquots (20 μl) were added in triplicate to the cultures in the microtitre plate, mixing well. At the highest concentrations (final 0.2mM), thiostrepton precipitates. After incubation for 48 hours under standard conditions, [2,8-^3 H]-hypoxanthine Moravek Biochemicals, 12.5 Ci/mmol) in RPMI (20 μl, 0.05 mCi/ml) was added to each well. After incubation for a further 24 hours, the cultures were lysed and incorporated radioactivity was measured with an automated counter.
Assay of inhibition. The effect of thiostrepton on growth and protein synthesis of P. falciparum was compared to anisomycin, since the effect of both of these drugs is on protein synthesis. To assay the effect of thiostrepton and anisomycin on the growth of P. faciparum, inhibition of the uptake and incorporation of [^3 H]hypoxanthine was quantitated at serial dilutions of the drugs on an in vitro culture of P. falciparum. […] Inhibition of the incorporation of [^3 H]leucine was also tested at the same dilutions of the drugs. For anisomycin, total protein synthesis was inhibited 50% at the IC50 (0.511 μM) for inhibition of growth, with the concentration-response almost superimposable on that of protein synthesis. […] This would occur if organelle protein synthesis was the target of inhibition (29,30).

C. parvum GCH1 oocysts = test: Intact C. parvum oocyst assay on MDBKF5D2 cell monolayers, immunofluorescence; assay type: cell-based
Description: In vitro doses of drugs. Thiostrepton (Calbiochem) was dissolved in sterile complete Dulbecco's Modified Eagle Medium (DMEM) supplemented with dimethyl sulfoxide (DMSO) at 0.2% and tested at concentrations of 800, 400, 200, and 100, 10, 1 and 0.1 μg/ml.
(§1) Intact C. parvum oocyst asset 3.0×10^4 C. parvum GCH1 oocysts per well were incubated in the above-mentioned concentrations of drug at 37° C. (8% CO2) on confluent MDBKF5D2 cell monolayers in 96 well microtiter plates. The level of infection in each well was determined and analyzed by immunofluorescence assay at 48 hours, using C. parvum sporozoite rabbit anti-serum (0.1%) and fluorescein-conjugated goat anti-rabbit antibody (1.0%). Percent inhibition was calculated by subtracting the mean parasite/drug from the mean parasitelmedium, divided by the mean parasite/medium, all of which was multiplied by 100. The analysis was performed using MCID and an inverted microscope.
In vitro doses of drugs. Thiostrepton (Calbiochem) and Phavic (NTZ) were dissolved in sterile complete Dulbecco's Modified Eagle Medium (DMEM) supplemented with dimethyl sulfoxide (DMSO) at 0.2% and tested at concentrations of 800, 400, 200, and 100 μg/ml. NTZ was tested at concentrations of 100, 10, 1 and 0.1 μg/ml. Paromomycin (Sigma) was dissolved in DMEM and tested at concentrations of 2000, 1000, 500 and 250 μg/ml.
as §1, with “assay .” for “asset”, “plates. For some monolayers, the oocysts were incubated in DMEM on the cell monolayers for four hours, at which time the monolayers were washed and then drug was added to the wells.” for “plates.”, “parasite/medium,” for “parasitelmedium,”
In vitro doses of drugs. Thiostrepton (Calbiochem), Phavic (NTZ) were dissolved in sterile complete Dulbecco's Modified Eagle Medium (DMEM) supplemented with dimethyl sulfoxide (DMSO) at 0.2%. Thiostrepton was tested at a concentration of 800 μg/ml. NTZ was tested at a concentration of 10 μg/ml. Paromomycin was dissolved in DMEM and tested at 2000 μg/ml. Cell monolayers were infected and washed, followed by the addition of drug at time intervals of 0, 2, 4, 8 and 24 hours.
as §1, with “assay.” for “asset”, “analyze” for “analyzed”, “parasite/medium,” for “parasitelmedium,”

[2] = system: rpoB/C mRNA encoded by the 35-kb plastid-like organelle genome; assay type: cell-based, P. falciparum; conditions: thiostrepton at 8 μM, rifampin at 80 μM
Description: As of organelle and cyloplasmic transcript levels. RNA polymerase transcript levels were assessed by comparing the amounts of RNA synthesized at timepoints following drug treatment. Cultures of P. falciparum (3.2% parasitemia, 5% hematocrit) were treated with thiostrepton at 8 μM and rifampin (Sigma) at 80 μM; near the IC99 values (this study and ref. 22). Aliquots (5 ml) of treated and control cultures were removed and immediately processed for RNA with a guanidinium thiocyanate solution, according to the manufacturer's directions (RNAgents, Promega). All RNA samples were dissolved in 50 μl DEPC-treated water, DNase I treated as previously described (23) and an aliquot (1 μl) was removed for RT-PCR First strand synthesis of cDNA was completed with a random hexamer (Superscript Preamplification System, Life Technologies). One-tenth of the CDNA product was utilized for PCR of rpoB/C, MSA1, and rRNA. Primers corresponding to the 3' region of rpoB, 5'-GGGCTTTAGAAGCTTTTGG-3' (SEQ ID NO:1), and the 5' region of rpoC, 5'-[…]-3' (SEQ ID NO:2) were applied as described (2,3) for PCR of nascent rpoB/C transcripts. Reactions were cycled with the following parameters: 94° C./30 seconds, 42° C./30 seconds, 72° C./60 seconds, 35 cycles. Primers for amplification of nucleotide 64 to 614 of MSA1 with 5'-GTGTGATAATATTCATGG-3' (SEQ ID NO:3) and 5'-GGAGAGCATTTGGTG-3' (SEQ ID NO:4)(24) and the small subunit rRNA with oligonucleotides 841 and 844 (23) were used for amplification reactions following the parameters in the respective references except with 35 cycles. Samples were also analyzed after 25 cycles of amplification to ensure detection in the linear range of the amplification reaction, with similar results. Following electrophoresis of aliquots from the amplification reactions on 1% agarose:TBE gels, samples were transferred to nylon membranes (GeneScreen Plus, DuPont) and hybridized as described (25). The amplification products were probed with 5'-^32 P-labeled oligonucleotides. The rpoB/C products were probed with 5'-[…]-3' (SEQ ID NO:5) (nucleotide 2009-2030 of rpoB) and 5'-CGGAGAGGTATTAATACC-3' (SEQ ED NO:6) (nucleotide 108-125 of rpoC), in 5×SSC, 10 mM sodium phosphate, 0.05% sodium pyrophosphate, 1% sodium dodecyl sulfate, 5×Denhardt's solution, 100 μg/ml yeast tRNA, 42° C. and washed in the hybridization solution lacking Denhardt's and tRNA at 37° C., three times. The final wash was 1×SSC, 0.5% sodium dodecyl sulfate, 42° C. followed by autoradiography. The same results were obtained with either probe. The MSA1 amplification products were similarly probed with 5'-[…]-3' (SEQ ID NO:7) and the rRNA products with oligonucleotide 842 (23).
The target of inhibition by thiostrepton. […]

[3] = system: P. falciparum (strain 3D7); conditions: concentration used, near the IC99 value; cited from earlier work
[4] = Table 4 Washed at 4 hours, 1 μg/ml
[5] = Table 4 Washed at 4 hours, 10 μg/ml
[6] = Table 4 Washed at 4 hours, .1 μg/ml
[7] = Table 5, 10 μg/ml, drug added at 0 hrs
[8] = Table 5, 10 μg/ml, drug added at 2 hrs
[9] = Table 5, 10 μg/ml, drug added at 4 hrs
[10] = Table 5, 10 μg/ml, drug added at 8 hrs
[11] = Table 5, 10 μg/ml, drug added at 24 hrs

COc1ccc(C[C@H]2NC[C@H](O)[C@H]2OC(C)=O)cc1 [anisomycin]
IC50 [1]: 500 nM

CC(=O)Oc1ccccc1C(=O)Nc1ncc([N+](=O)[O-])s1 [NTZ]
Inhibition Percent (C. parvum GCH1 oocysts; Table 3 Unwashed, 1 μg/ml): 43.60% | Inhibition Score (C. parvum GCH1 oocysts; Table 3 Unwashed, 1 μg/ml): 1 (1: 31-55%) | Parasite Count (C. parvum GCH1 oocysts; Table 3 Unwashed, 1 μg/ml): 694.75 | Inhibition Percent (C. parvum GCH1 oocysts; Table 3 Unwashed, 10 μg/ml): 92.91% | Inhibition Score (C. parvum GCH1 oocysts; Table 3 Unwashed, 10 μg/ml): 4 (4: 91-100%) | Parasite Count (C. parvum GCH1 oocysts; Table 3 Unwashed, 10 μg/ml): 87.31 | Inhibition Percent (C. parvum GCH1 oocysts; Table 3 Unwashed, .1 μg/ml): 10.31% | Inhibition Score (C. parvum GCH1 oocysts; Table 3 Unwashed, .1 μg/ml): 0 (0: 0-30%) | Parasite Count (C. parvum GCH1 oocysts; Table 3 Unwashed, .1 μg/ml): 1104.81 | Inhibition Percent (C. parvum GCH1 oocysts; [4]): 83.27% | Inhibition Score (C. parvum GCH1 oocysts; [4]): 3 (3: 71-90%) | Parasite Count (C. parvum GCH1 oocysts; [4]): 233.44 | Inhibition Percent (C. parvum GCH1 oocysts; [5]): 93.12% | Inhibition Score (C. parvum GCH1 oocysts; [5]): 4 (4: 91-100%) | Parasite Count (C. parvum GCH1 oocysts; [5]): 96.06 | Inhibition Percent (C. parvum GCH1 oocysts; [6]): 4.42% | Inhibition Score (C. parvum GCH1 oocysts; [6]): 0 (0: 0-30%) | Parasite Count (C. parvum GCH1 oocysts; [6]): 1334.06 | Inhibition Percent (C. parvum GCH1 oocysts; [7]): 91.12% | Inhibition Score (C. parvum GCH1 oocysts; [7]): 4 (4: 91-100%) | Parasite Count (C. parvum GCH1 oocysts; [7]): 113.06 | Inhibition Percent (C. parvum GCH1 oocysts; [8]): 95.76% | Inhibition Score (C. parvum GCH1 oocysts; [8]): 4 (4: 91-100%) | Parasite Count (C. parvum GCH1 oocysts; [8]): 53.94 | Inhibition Percent (C. parvum GCH1 oocysts; [9]): 91.18% | Inhibition Score (C. parvum GCH1 oocysts; [9]): 4 (4: 91-100%) | Parasite Count (C. parvum GCH1 oocysts; [9]): 112.31 | Inhibition Percent (C. parvum GCH1 oocysts; [10]): 86.01% | Inhibition Score (C. parvum GCH1 oocysts; [10]): 3 (3: 71-90%) | Parasite Count (C. parvum GCH1 oocysts; [10]): 178.13 | Inhibition Percent (C. parvum GCH1 oocysts; [11]): 60.60% | Inhibition Score (C. parvum GCH1 oocysts; [11]): 2 (2: 56-70%) | Parasite Count (C. parvum GCH1 oocysts; [11]): 501.63 | activity when drug is added 24 hours after infection (C. parvum GCH1 oocysts; intracellular stages only): still highly inhibitory

CO[C@H]1/C=C/O[C@@]2(C)Oc3c(C)c(O)c4c(O)c(c(/C=N/N5CCN(C)CC5)c(O)c4c3C2=O)NC(=O)/C(C)=C\C=C\[C@H](C)[C@H](O)[C@@H](C)[C@@H](O)[C@@H](C)[C@H](OC(C)=O)[C@@H]1C [rifampin]
decay of mRNA corresponding to rpoB/C, time of drug treatment [2]: ≤ 6 h | IC99 (near) [3]: ~80 µM
